Assay results: ChEMBL document CHEMBL4665694, “Integrating the Impact of Lipophilicity on Potency and Pharmacokinetic Parameters Enables the Use of Diverse Chemical Space during Small Molecule Drug Optimization” (J Med Chem, 2020)

Tests used:
Format in all cases: ADME
[1] = Clearance in human
[2] = Unbound clearance in human
[3] = Volume of distribution at steady state in human; details: read-out: Vdss
[4] = Unbound volume of distribution at steady state in human
[5] = AUC in human administered as single dose
[6] = Unbound AUC in human administered as single dose
[7] = Fraction unbound in human
[8] = Half life in human
[9] = AUC at steady state in human administered as single dose
[10] = Unbound AUC at steady state in human administered as single dose

Structure (SMILES)	clearance [1] [mL/min/kg]	CL free [2] [mL/min/kg]	Vd [3] [L/kg]	fVdss [4] [L/kg]	AUC [5] [ng·h/mL]	fAUC [6] [µg·h/mL]	fraction unbound [7]	half-life [8] [min]	AUC [9] [ng·h/mL]	fAUC [10] [µg·h/mL]
OC(Cn1cncn1)(Cn1cncn1)c1ccc(F)cc1F [FLUCONAZOLE]	0.9	1	0.9	1	100000	90	0.9	1920		
CCC(C)n1ncn(-c2ccc(N3CCN(c4ccc(OCC5COC(Cn6cncn6)(c6ccc(Cl)cc6Cl)O5)cc4)CC3)cc2)c1=O (stereo unspecified) [ITRACONAZOLE]	5.4	> 2700	11	> 5000			≤ 0.002	1380	23000	0.05
